Results from ChEMBL document CHEMBL5614438, “CETZOLE Analogs as Potent Ferroptosis Inducers and Their Target Identification Using Covalent/Affinity Probes” (J Med Chem, 2024).
Activity calls are given as the source filed them. The calls are words filed in the database; no cut-off is given here.

Columns and labels:
[1] = test system: NCI-H522; experiment: Cytotoxicity against human NCI-H522 cells assessed as reduction in cell viability incubated for 3 days by methylene blue staining based spectrophotometric analysis; type: functional; details: NCI-H522, 72 h, time 3 day
[2] = test system: HT-1080; experiment: Cytotoxicity against human HT-1080 cells assessed as reduction in cell viability incubated for 3 days by methylene blue staining based spectrophotometric analysis; type: functional; details: HT-1080, 72 h, time 3 day
[3] = test system: MDA-MB-231; experiment: Cytotoxicity against human MDA-MB-231 cells assessed as reduction in cell viability incubated for 3 days by methylene blue staining based spectrophotometric analysis; type: functional; details: MDA-MB-231, 72 h, time 3 day
[4] = test system: NCI-H522; experiment: Induction of ferroptosis in human NCI-H522 cells assessed as cell viability at 7.8 uM incubated for 3 days in presence of liproxstatin-1 by methylene blue staining based spectrophotometric analysis relative to control; type: functional; details: NCI-H522, 72 h, time 3 day, read-out: Activity
[5] = test system: NCI-H522; experiment: Induction of ferroptosis in human NCI-H522 cells assessed as reduction in cell viability at 7.8 uM incubated for 3 days in presence of liproxstatin-1 by methylene blue staining based spectrophotometric analysis; type: functional; details: time 3.0 day
[6] = test system: NCI-H522; experiment: Induction of ferroptosis in human NCI-H522 cells assessed as cell viability at 6.93 uM incubated for 3 days in presence of liproxstatin-1 by methylene blue staining based spectrophotometric analysis relative to control; type: functional; details: NCI-H522, 72 h, time 3 day, read-out: Activity
[7] = test system: NCI-H522; experiment: Induction of ferroptosis in human NCI-H522 cells assessed as reduction in cell viability at 6.93 uM incubated for 3 days in presence of liproxstatin-1 by methylene blue staining based spectrophotometric analysis; type: functional; details: time 3.0 day
[8] = Drug localization in human HeLa cell nucleus incubated for 1 hr by TAMRA/Hoechst dye based fluorescent live cell imaging analysis; type: ADME, subcellular
[9] = Drug localization in human HeLa cell vacuole incubated for 1 hr by TAMRA/Hoechst dye based fluorescent live cell imaging analysis; type: ADME, subcellular
[10] = test system: NCI-H522; experiment: Cytotoxicity against human NCI-H522 cells overexpressing GFP-tagged SLC7A11 assessed as reduction in cell viability incubated for 3 days by methylene blue staining based spectrophotometric analysis; type: functional; details: NCI-H522, 72 h, time 3 day
[11] = test system: NCI-H522; experiment: Cytotoxicity against human NCI-H522 cells overexpressing GFP-tagged RV assessed as reduction in cell viability incubated for 3 days by methylene blue staining based spectrophotometric analysis; type: functional; details: NCI-H522, 72 h, time 3 day
[12] = test system: U2OS; experiment: Cytotoxicity against human U2OS cells assessed as reduction in cell viability incubated for 3 days by methylene blue staining based spectrophotometric analysis; type: functional; details: 72 h, time 3 day
[13] = test system: NCI-H522; experiment: Induction of ferroptosis in human NCI-H522 cells assessed as increase in intracellular lipid peroxidation accumulation at 0.36 uM incubated for 6 hrs by C11 BODIPY 581/591 staining based flow cytometry; type: functional, cell-based
[14] = test system: NCI-H522; experiment: Induction of ferroptosis in human NCI-H522 cells assessed as cell death at 0.38 uM incubated for 3 days by methylene blue staining based spectrophotometric analysis relative to control; type: functional; details: time 3 day
[15] = test system: NCI-H522; experiment: Cytotoxicity against human NCI-H522 cells assessed as reduction in cell viability at 1 uM incubated for 3 days by methylene blue staining based spectrophotometric analysis; type: functional; details: time 3.0 day
[16] = test system: HT-1080; experiment: Cytotoxicity against human HT-1080 cells assessed as reduction in cell viability at 1 uM incubated for 3 days by methylene blue staining based spectrophotometric analysis; type: functional; details: time 3.0 day
[17] = test system: WI-38; experiment: Cytotoxicity against human WI-38 cells assessed as reduction in cell viability at 1 uM incubated for 3 days by methylene blue staining based spectrophotometric analysis; type: toxicity; details: wi-38, 72 h, time 3 day
[18] = test system: MEF; experiment: Cytotoxicity against mouse MEF cells assessed as reduction in cell viability at 1 uM incubated for 3 days by methylene blue staining based spectrophotometric analysis; type: toxicity; details: 72 h, time 3 day
[19] = target: Glucose-6-phosphate 1-dehydrogenase (Homo sapiens) (UniProt P11413); experiment: Inhibition of G6PD in human HCT-116 cells using G6P as substrate assessed as reduction in enzyme activity by measuring absorbance at 100 uM incubated for 20 mins followed by G6P and […]; type: cell-based
[20] = target: Phospholipid hydroperoxide glutathione peroxidase GPX4 (Homo sapiens) (UniProt P36969); experiment: Inhibition of recombinant GPX4 (unknown origin) at 100 uM incubated for 60 mins followed by NADPH addition
[21] = target: Glucose-6-phosphate 1-dehydrogenase (Homo sapiens) (UniProt P11413); experiment: Inhibition of G6PD in human HCT-116 cells using G6P as substrate at 100 uM incubated for 20 mins followed by G6P and […]; type: cell-based
[22] = target: T1, Peroxiredoxin-4 (Homo sapiens) (UniProt Q13162); experiment: Inhibition of PRDX4 (unknown origin)
T1 sequence (whole entry): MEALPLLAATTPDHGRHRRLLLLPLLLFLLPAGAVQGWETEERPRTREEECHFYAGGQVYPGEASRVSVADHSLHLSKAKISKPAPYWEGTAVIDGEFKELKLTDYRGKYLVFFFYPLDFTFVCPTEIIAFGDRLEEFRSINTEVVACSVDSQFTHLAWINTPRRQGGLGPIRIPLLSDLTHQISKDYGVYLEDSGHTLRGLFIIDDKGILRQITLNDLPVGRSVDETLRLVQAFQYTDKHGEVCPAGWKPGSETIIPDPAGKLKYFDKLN

[23] = test system: NCI-H522; experiment: Induction of cell death in human NCI-H522 cells at 10 uM incubated for 3 to 4 hrs by live cell imaging analysis relative to control; type: functional; details: time 3-4 hrs
[24] = test system: NCI-H522; experiment: Induction of ferroptosis in human NCI-H522 cells assessed as cell viability incubated for 3 days in presence of liproxstatin-1 by methylene blue staining based spectrophotometric analysis relative to control; type: functional; details: time 3 day
[25] = test system: NCI-H522; experiment: Induction of ferroptosis in human NCI-H522 cells incubated for 3 days in presence of liproxstatin-1 by methylene blue staining based spectrophotometric analysis; type: functional, cell-based; details: time 3.0 day
[26] = test system: NCI-H522; experiment: Induction of ferroptosis in human NCI-H522 cells assessed as increase in intracellular lipid peroxidation accumulation at 0.51 uM incubated for 6 hrs by C11 BODIPY 581/591 staining based flow cytometry; type: functional, cell-based
[27] = test system: NCI-H522; experiment: Induction of ferroptosis in human NCI-H522 cells assessed as cell death at 0.51 uM incubated for 3 days by methylene blue staining based spectrophotometric analysis relative to control; type: functional; details: time 3 day
[28] = test system: UO-31; experiment: Cytotoxicity against human UO-31 cells assessed as reduction in cell growth by measuring cell viability at 10 uM relative to control; type: functional
[29] = test system: 786-0; experiment: Cytotoxicity against human 786-0 cells assessed as reduction in cell growth by measuring cell viability at 10 uM relative to control; type: functional
[30] = test system: CCRF-CEM; experiment: Cytotoxicity against human CCRF-CEM cells assessed as reduction in cell growth at 10 uM; type: functional, cell-based
[31] = test system: HL-60; experiment: Cytotoxicity against human HL-60 cells assessed as reduction in cell growth at 10 uM; type: functional, cell-based
[32] = test system: K562; experiment: Cytotoxicity against human K562 cells assessed as reduction in cell growth at 10 uM; type: functional, cell-based
[33] = test system: MOLT-4; experiment: Cytotoxicity against human MOLT-4 cells assessed as reduction in cell growth at 10 uM; type: functional, cell-based
[34] = test system: RPMI-8226; experiment: Cytotoxicity against human RPMI-8226 cells assessed as reduction in cell growth at 10 uM; type: functional, cell-based
[35] = test system: SR; experiment: Cytotoxicity against human SR cells assessed as reduction in cell growth at 10 uM; type: functional, cell-based
[36] = test system: OVCAR-3; experiment: Cytotoxicity against human OVCAR-3 cells assessed as reduction in cell growth at 10 uM; type: functional, cell-based
[37] = test system: OVCAR-4; experiment: Cytotoxicity against human OVCAR-4 cells assessed as reduction in cell growth at 10 uM; type: functional, cell-based
[38] = test system: OVCAR-5; experiment: Cytotoxicity against human OVCAR-5 cells assessed as reduction in cell growth at 10 uM; type: functional, cell-based
[39] = test system: OVCAR-8; experiment: Cytotoxicity against human OVCAR-8 cells assessed as reduction in cell growth at 10 uM; type: functional, cell-based
[40] = test system: NCI/ADR-RES; experiment: Cytotoxicity against human NCI-ADR-RES cells assessed as reduction in cell growth at 10 uM; type: functional, cell-based
[41] = test system: SK-OV-3; experiment: Cytotoxicity against human SK-OV-3 cells assessed as reduction in cell growth at 10 uM; type: functional, cell-based
[42] = test system: 786-0; experiment: Cytotoxicity against human 786-0 cells assessed as reduction in cell growth at 10 uM; type: functional, cell-based
[43] = test system: ACHN; experiment: Cytotoxicity against human ACHN cells assessed as reduction in cell growth at 10 uM; type: functional, cell-based
[44] = test system: CAKI-1; experiment: Cytotoxicity against human CAKI-1 cells assessed as reduction in cell growth at 10 uM; type: functional, cell-based
[45] = test system: RXF 393; experiment: Cytotoxicity against human RXF 393 cells assessed as reduction in cell growth at 10 uM; type: functional, cell-based
[46] = test system: SN12C; experiment: Cytotoxicity against human SN12C cells assessed as reduction in cell growth at 10 uM; type: functional, cell-based
[47] = test system: TK-10; experiment: Cytotoxicity against human TK-10 cells assessed as reduction in cell growth at 10 uM; type: functional, cell-based
[48] = test system: UO-31; experiment: Cytotoxicity against human UO-31 cells assessed as reduction in cell growth at 10 uM; type: functional, cell-based
[49] = test system: IGROV-1; experiment: Cytotoxicity against human IGROV-1 cells assessed as reduction in cell growth by measuring cell viability at 10 uM relative to control; type: functional
[50] = test system: NCI-H522; experiment: Induction of ferroptosis in human NCI-H522 cells assessed as increase in intracellular lipid peroxidation accumulation at 0.39 uM incubated for 6 hrs by C11 BODIPY 581/591 staining based flow cytometry; type: functional, cell-based
[51] = test system: NCI-H522; experiment: Induction of ferroptosis in human NCI-H522 cells assessed as cell death at 0.39 uM incubated for 3 days by methylene blue staining based spectrophotometric analysis relative to control; type: functional; details: time 3 day

Glucose-6-phosphate 1-dehydrogenase (Homo sapiens), sequence (P11413 whole entry): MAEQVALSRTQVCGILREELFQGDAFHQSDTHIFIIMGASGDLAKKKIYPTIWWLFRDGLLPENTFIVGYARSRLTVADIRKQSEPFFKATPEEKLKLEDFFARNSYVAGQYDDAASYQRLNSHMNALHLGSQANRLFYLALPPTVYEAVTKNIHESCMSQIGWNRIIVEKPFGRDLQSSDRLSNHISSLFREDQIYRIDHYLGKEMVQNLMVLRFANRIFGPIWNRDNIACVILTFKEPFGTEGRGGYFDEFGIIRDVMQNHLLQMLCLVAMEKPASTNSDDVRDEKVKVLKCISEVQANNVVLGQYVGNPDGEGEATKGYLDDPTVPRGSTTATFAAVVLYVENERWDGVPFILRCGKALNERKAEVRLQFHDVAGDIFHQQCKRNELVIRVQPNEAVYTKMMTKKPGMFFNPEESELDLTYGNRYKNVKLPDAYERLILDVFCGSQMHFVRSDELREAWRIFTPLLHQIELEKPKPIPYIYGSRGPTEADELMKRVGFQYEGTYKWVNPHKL
Phospholipid hydroperoxide glutathione peroxidase GPX4 (Homo sapiens), sequence (P36969 whole entry): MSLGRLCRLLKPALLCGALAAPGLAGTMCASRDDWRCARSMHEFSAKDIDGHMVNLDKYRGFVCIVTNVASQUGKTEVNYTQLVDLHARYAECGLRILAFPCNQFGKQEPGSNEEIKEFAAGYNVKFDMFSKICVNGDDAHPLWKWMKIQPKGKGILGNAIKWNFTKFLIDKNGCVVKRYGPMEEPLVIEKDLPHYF

SMILES: C#CCCC(=O)Nc1ccc(C(=O)c2ccc(NC(=O)CO/N=C3\CC(c4csc(C#C)n4)=C(C)C3O)cc2)cc1 (stereo unspecified)
- CC50 [1]: 2.6 µM
- CC50 [2]: 1.2 µM
- CC50 [3]: 1.33 µM
- viability at 7.8 µM [4]: 45%
- Activity [5]: inactive

SMILES: C#CCO/N=C1\CC(c2csc(C#C)n2)=C(C)C1O (stereo unspecified)
- CC50 [1]: 2.31 µM
- CC50 [2]: 1.17 µM
- CC50 [3]: 2.7 µM
- viability at 6.93 µM [6]: 75%
- Activity [7]: inactive
- Drug uptake [8]: Active
- Drug uptake [9]: Active

SMILES: C#Cc1nc(C2=C(C)C(OC(=O)CC)/C(=N/OC(=O)CC)C2)cs1 (stereo unspecified)
- CC50 [1]: 0.12 µM
- CC50 [10]: 2.06 µM
- CC50 [11]: 0.59 µM
- CC50 [2]: 0.15 µM
- CC50 [12]: 13.4 µM
- CC50 [3]: 0.18 µM
- Activity [13]: Active
- Activity [14]: ~60%
- Activity [15]: Active
- Activity [16]: Active
- Activity [17]: Toxic
- Activity [18]: Toxic
- Activity [19]: 0.13
- inhibition [20]: Active
- inhibition [21]: Active
- inhibition [22]: inactive

SMILES: C#Cc1nc(C2=C(C)C(OC(C)=O)/C(=N/OC(C)=O)C2)cs1 (stereo unspecified)
- CC50 [1]: 0.17 µM
- CC50 [10]: 1.59 µM
- CC50 [11]: 0.26 µM
- CC50 [2]: 0.14 µM
- CC50 [12]: 7.26 µM
- CC50 [3]: 0.23 µM
- Activity [23]: 50%
- Activity [24]: 60%
- Activity [25]: Active
- Activity [26]: Active
- Activity [27]: ~60%
- Activity [15]: Active
- Activity [16]: Active
- Activity [17]: Toxic
- Activity [18]: Toxic
- Activity [28]: -95%
- Activity [29]: -95%
- Activity [30]: inactive
- Activity [31]: inactive
- Activity [32]: inactive
- Activity [33]: inactive
- Activity [34]: inactive
- Activity [35]: inactive
- Activity [36]: inactive
- Activity [37]: inactive
- Activity [38]: inactive
- Activity [39]: inactive
- Activity [40]: inactive
- Activity [41]: inactive
- Activity [42]: inactive
- Activity [43]: inactive
- Activity [44]: inactive
- Activity [45]: inactive
- Activity [46]: inactive
- Activity [47]: inactive
- Activity [48]: inactive
- Activity [49]: -95%
- Activity [19]: 0.18
- inhibition [20]: Active
- inhibition [21]: Active
- inhibition [22]: inactive

SMILES: C#Cc1nc(C2=C(C)C(OC(=O)CCC)/C(=N/OC(=O)CCC)C2)cs1 (stereo unspecified)
- CC50 [1]: 0.13 µM
- CC50 [10]: 1.93 µM
- CC50 [11]: 0.28 µM
- CC50 [2]: 0.19 µM
- CC50 [12]: 5.85 µM
- CC50 [3]: 0.83 µM
- Activity [50]: Active
- Activity [51]: ~60%
- Activity [15]: Active
- Activity [16]: Active
- Activity [17]: Toxic
- Activity [18]: Toxic
